{"source": "paper PMC10138554", "about": "“Insights into the Microbicidal, Antibiofilm, Antioxidant and Toxicity Profile of New O-Aryl-Carbamoyl-Oxymino-Fluorene Derivatives” (International Journal of Molecular Sciences, 2023)", "origin": "cited, not measured here", "tested_on": "Artemia franciscana Kellog nauplii", "details": "comparison value for brine shrimp toxicity; cited from earlier work"}
{"smiles": "O=P1(N(CCCl)CCCl)NCCCO1", "note": "(stereo not shown) [cyclophosphamide]", "values": [{"measurement": "IC50 (toxicity)", "result": 16.3, "unit": "µg/mL"}]}
